These results are taken from publication PMC11828983 (Scientific Reports, 2025).

The target of one experiment is T1, α1 GlyR (homomeric) (Rattus norvegicus, UniProt Q546L7).
T1 sequence (Q546L7 29-449): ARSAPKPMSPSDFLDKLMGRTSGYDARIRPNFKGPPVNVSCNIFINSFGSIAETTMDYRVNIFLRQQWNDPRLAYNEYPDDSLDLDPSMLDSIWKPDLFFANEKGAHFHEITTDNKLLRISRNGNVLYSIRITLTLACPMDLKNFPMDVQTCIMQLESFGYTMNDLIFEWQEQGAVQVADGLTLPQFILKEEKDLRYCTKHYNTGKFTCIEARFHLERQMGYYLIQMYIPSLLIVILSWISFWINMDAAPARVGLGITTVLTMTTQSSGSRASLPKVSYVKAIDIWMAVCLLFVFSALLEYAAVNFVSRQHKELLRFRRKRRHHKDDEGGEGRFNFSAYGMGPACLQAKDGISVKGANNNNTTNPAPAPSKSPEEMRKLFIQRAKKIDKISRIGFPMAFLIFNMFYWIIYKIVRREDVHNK
The experiment can be described thus: whole-cell patch clamp, direct activation. Particulars: no glycine added; agonist; residual glycine not excluded. The experiment is classed as cell-based.

The target in another experiment is T2, α3 GlyR (homomeric) (Rattus norvegicus, UniProt P24524).
T2 sequence (P24524 34-464): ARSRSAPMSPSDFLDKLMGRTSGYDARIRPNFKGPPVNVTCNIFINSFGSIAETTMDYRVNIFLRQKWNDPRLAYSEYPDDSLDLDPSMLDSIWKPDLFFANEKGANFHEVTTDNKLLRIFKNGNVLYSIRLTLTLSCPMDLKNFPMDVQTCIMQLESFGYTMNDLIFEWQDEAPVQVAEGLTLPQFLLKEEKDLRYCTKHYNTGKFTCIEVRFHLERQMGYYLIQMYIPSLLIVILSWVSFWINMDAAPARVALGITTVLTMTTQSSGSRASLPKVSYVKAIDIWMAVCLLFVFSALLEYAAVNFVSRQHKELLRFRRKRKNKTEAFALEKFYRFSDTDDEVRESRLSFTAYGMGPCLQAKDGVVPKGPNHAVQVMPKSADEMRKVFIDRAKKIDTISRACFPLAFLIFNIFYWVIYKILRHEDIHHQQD
Nature of the experiment: whole-cell patch clamp, direct activation. The class given is cell-based. Particulars: no glycine added; agonist; residual glycine not excluded. A general note: Patch clamp records ionic current or voltage across a cell membrane.

On to AM-1488, for which the “% of maximal glycine current at 100 μM” value was > 20% on α1 GlyR (homomeric) and ~ 15% on α3 GlyR (homomeric).
